Results on 27 compounds are retold here after patent US11746100B2 (GLOBAL BLOOD THERAPEUTICS, INC., priority 2020, dated 2023).

The target of the experiment is T1, human ferroportin (Homo sapiens, UniProt Q9NP59).
T1 construct: luciferase reporter (read with the Nano-Glo Luciferase Assay System); expressed in transfected cells; host or cells: CHO cells, stably transfected, expression induced with doxycycline
T1 sequence (Q9NP59 1-571): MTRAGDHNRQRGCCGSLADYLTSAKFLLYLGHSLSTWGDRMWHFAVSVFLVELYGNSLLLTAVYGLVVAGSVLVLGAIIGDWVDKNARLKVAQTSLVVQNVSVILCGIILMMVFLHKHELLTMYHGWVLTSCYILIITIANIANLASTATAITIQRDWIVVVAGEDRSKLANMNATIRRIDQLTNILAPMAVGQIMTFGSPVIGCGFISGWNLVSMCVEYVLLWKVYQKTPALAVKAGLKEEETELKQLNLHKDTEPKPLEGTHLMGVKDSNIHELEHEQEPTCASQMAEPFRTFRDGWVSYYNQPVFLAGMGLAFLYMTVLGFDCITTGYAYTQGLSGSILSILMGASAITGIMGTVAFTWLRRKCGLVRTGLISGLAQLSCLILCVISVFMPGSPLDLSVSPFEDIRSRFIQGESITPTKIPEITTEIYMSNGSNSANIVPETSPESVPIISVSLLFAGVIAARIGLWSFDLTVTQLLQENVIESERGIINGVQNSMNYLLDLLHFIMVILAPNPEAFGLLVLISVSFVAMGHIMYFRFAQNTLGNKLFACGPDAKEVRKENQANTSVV
Nature of the experiment: Biological in-vitro ferroportin internalization assay (luciferase reporter). The note with it: average pEC50; stably-transfected CHO cell line expressing human ferroportin tagged to a luciferase reporter; 6 h incubation with test compound. Type of experiment: cell-based. A digest of the protocol: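 Read-out is Nano-Glo luciferase signal after 6 h compound exposure, with average pEC50 derived. Cells are a stable CHO line carrying luciferase-tagged human ferroportin, pre-loaded 24 h with ferric ammonium citrate and doxycycline-induced for 24 h.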

`CN(CC(=O)NC1(C(F)(F)F)CC1)c1nc(-c2cc(OCC(C)(C)O)ccn2)nc2c1CCC2` [Compound 337, 2-({2-[4-(2-hydroxy-2-methylpropoxy)pyridin-2-yl]-5H,6H,7H-cyclopenta[d]pyrimidin-4-yl}(methyl)amino)-N-[1-(trifluoromethyl)cyclopropyl]aceta-mide] came in with a negative logarithm of the EC50 (pEC50) of 7.4.

As for `CN(CC(=O)NC1(C(F)(F)F)CC1)c1nc(-c2cc(OC3COC3)ccn2)nc2c1CCC2` [Compound 338, 2-[methyl({2-[4-(oxetan-3-yloxy)pyridin-2-yl]-5H,6H,7H-cyclopenta[d]pyrimidin-4-yl})amino]-N-[1-(trifluoromethyl)cyclopropyl]aceta-mide], the pEC50 is given as 7.1.

The compound `CN(CC(=O)Nc1ccc(Cl)cc1)c1nc(-c2cc(OCCO)ccn2)nc2c1CCC2` [Compound 339, N-(4-chloropehnyl)-2-({2-[4-(2-hydroxyethoxy)pyridin-2-yl]-5H,6H,7H-cyclopenta[d]pyrimidin-4-yl}(methyl)amino)acetamide] had a pEC50 of 8.2.

With `CN(CC(=O)NC12CC(C1)C2)c1nc(-c2cc(OC3COC3)ccn2)nc2c1CCC2` [Compound 340, N-{bicyclo[1.1.1]pentan-1-yl}-2-[methyl({2-[4-(oxetan-3-yloxy)pyridin-2-yl]-5H,6H,7H-cyclopenta[d]pyrimidin-4-yl})amino]acetamide], the negative-log EC50 (pEC50) was 7.7.

`CN(CC(=O)NC(C)(C)C)c1nc(-c2cc3occc3cn2)nc2c1CCC2` [Compound 341, N-tert-butyl-2-[(2-{furo[3,2-c]pyridin-6-yl}-5H,6H,7H-cyclopenta[d]pyrimidin-4-yl)(methyl)amino]acetamide] showed a pEC50 of 7.6.

Consider `CN(CC(=O)N1CCCCC1)c1nc(-c2cc(O[C@@H]3CCOC3)ccn2)nc2c1CCC2` [Compound 342, 2-[methyl(2-{4-[(3R)-oxolan-3-yoxy]pyridin-2-yl}-5H,6H,7H-cyclopenta[d]pyrimidin-4-yl)amino]-1-(piperidin-1-yl)ethan-1-one], for which the pEC50 stood at 7.6.

As for `CN(CC(=O)N1CCCCC1)c1nc(-c2cc(O[C@H]3CCOC3)ccn2)nc2c1CCC2` [Compound 343, 2-[methyl(2-{4-[(3S)-oxolan-3-yloxy]pyridin-2-yl}-5H,6H,7H-cyclopenta[d]pyrimidin-4-yl)amino]-1-(piperidin-1-yl)ethan-1-one], the pEC50 was determined as 7.7.

Consider `COc1ccc(NC(=O)CN(C)c2nc(-c3cc(OCCN(C)C)ccn3)nc3c2CCC3)cn1` [Compound 344, 2-[(2-{4-[2-(dimethylamino)ethoxy]pyridin-2-yl}-5H,6H,7H-cyclopenta[d]pyrimidin-4-yl)(methyl)amino]-N-(6-methoxypyridin-3-yl)acetamide], for which the pEC50 is listed as 7.6.

`CN(CC(=O)Nc1cccc(F)c1)c1nc(-c2cc(O[C@H]3C[C@@H](O)C3)ccn2)nc2c1CCC2` [Compound 345, N-(3-fluorophenyl)-2-[methyl(2-{4-[(1s,3s)-3-hydroxycyclobutoxy]pyridin-2-yl}-5H,6H,7H-cyclopenta[d]pyrimidin-4-yl)amino]acetamide] registered a pEC50 of 6.7.

Turning to `COc1ccc(NC(=O)CN(C)c2nc(-c3cc(O[C@@H]4CCOC4)ccn3)nc3c2CCC3)cn1` [Compound 346, N-(6-methoxypyridin-3-yl)-2-[methyl(2-{4-[(3R)-oxolan-3-yloxy]pyridin-2-yl}-5H,6H,7H-cyclopenta[d]pyrimidin-4-yl)amino]acetamide], the pEC50 came out at 7.6.

With `COc1ccc(NC(=O)CN(C)c2nc(-c3cc(O[C@H]4CCOC4)ccn3)nc3c2CCC3)cn1` [Compound 347], the pEC50 is reported as 7.6.

On to `CN(C)CCOc1ccnc(-c2nc3c(c(N(C)CC(=O)NC(C)(C)C)n2)CCC3)c1` [Compound 348, N-tert-butyl-2-[(2-{4-[2-(dimethylamino)ethoxy]pyridin-2-yl}-5H,6H,7H-cyclopenta[d]pyrimidin-4-yl)(methyl)amino]acetamide], for which the negative logarithm of the EC50 (pEC50) is given as 8.0.

In the case of `CN(CC(=O)NC12CC(C1)C2)c1nc(-c2cc(OCCO)ccn2)nc2c1CCC2` [Compound 349, N-{bicyclo[1.1.1]pentan-1-yl}-2-({2-[4-(2-hydroxyethoxy)pyridin-2-yl]-5H,6H,7H-cyclopenta[d]pyrimidin-4-yl}(methyl)amino)acetamide], the pEC50 is reported as 7.8.

In the case of `Cc1cc(NC(=O)CN(C)c2nc(-c3cc(OCCO)ccn3)nc3c2CCC3)sn1` [Compound 350, 2-({2-[4-(2-hydroxyethoxy)pyridin-2-yl]-5H,6H,7H-cyclopenta[d]pyrimidin-4-yl}(methyl)amino)-N-(3-methyl-1,2-thiaozl-5-yl)acetamide], the negative logarithm of the EC50 (pEC50) was 7.7.

Turning to `CN(Cc1ncn(-c2cccc(F)c2)n1)c1nc(-c2cc(OCCO)ccn2)nc2c1CCC2` [Compound 351, 2-({2-[4-({[1-(3-fluorophenyl)-1H-1,2,4-triazol-3-yl]methyl}(methyl)amino)-5H,6H,7H-cyclopenta[d]pyrimidin-2-yl]pyridin-4-yl}oxy)ethan-1-ol], the negative logarithm of the EC50 (pEC50) turned out to be 7.6.

`CN(CC(=O)NC(C)(C)C)c1nc(-c2cc(-c3cnn(C)c3)ccn2)nc2c1CCC2` [Compound 352, N-tert-butyl-2-[methyl({2-[4-(1-methyl-1H-pyrazol-4-yl)pyridin-2-yl]-5H,6H,7H-cyclopenta[d]pyrimidin-4-yl})amino]acetamide]: the negative-log EC50 (pEC50) was determined as 7.6.

`CN(CC(=O)Nc1cnn(C2CC2)c1)c1nc(-c2cc(OCCO)ccn2)nc2c1CCC2` [Compound 353, N-(1-cyclopropyl-1H-pyrazol-4-yl)-2-({2-[4-(2-hydroxyethoxy)pyridin-2-yl]-5H,6H,7H-cyclopenta[d]pyrimidin-4-yl}(methyl)amino)acetamide] came in with a pEC50 of 7.8.

For `CN(CC(=O)N1CCCC1)c1nc(-c2cc(OCCO)ccn2)nc2c1CCC2` [Compound 354, 2-({2-[4-(2-hydroxyethoxy)pyridin-2-yl]-5H,6H,7H-cyclopenta[d]pyrimidin-4-yl}(methyl)amino)-1-(pyrrolidin-1-yl)ethan-1-one], the pEC50 came to 7.7.

For the compound `CN(CC(=O)N1CCC(F)(F)CC1)c1nc(-c2cc(OCCO)ccn2)nc2c1CCC2` [Compound 355, 1-(4,4-difluoropiperidin-1-yl)-2-({2-[4-(2-hydroxyethoxy)pyridin-2-yl]-5H,6H,7H-cyclopenta[d]pyrimidin-4-yl}(methyl)amino)ethan-1-one], the negative logarithm of the EC50 (pEC50) is 7.7.

Take `CC(=O)NCCOc1ccnc(-c2nc3c(c(N(C)CC(=O)Nc4cccc(F)c4)n2)CCC3)c1` [Compound 356, 2-({2-[4-(2-acetamidoethoxy)pyridin-2-yl]-5H,6H,7H-cyclopenta[d]pyrimidin-4-yl}(methyl)amino)-N-(3-fluorophenyl)acetamide]: the pEC50 came to 8.3.

Regarding `CN(CC(=O)N1CCCCCC1)c1nc(-c2cc(OCCO)ccn2)nc2c1CCC2` [Compound 357, 1-(azepan-1-yl)-2-({2-[4-(2-hydroxyethoxy)pyridin-2-yl]-5H,6H,7H-cyclopenta[d]pyrimidin-4-yl}(methyl)amino)ethan-1-one], the pEC50 came to 7.7.

The compound `CN(CC(=O)N1CCCCCC1)c1nc(-c2cc(OC3COC3)ccn2)nc2c1CCC2` [Compound 358, 1-(azepan-1-yl)-2-[methyl({2-[4-(oxetan-3-yloxy)pyridin-2-yl]-5H,6H,7H-cyclopenta[d]pyrimidin-4-yl})amino]ethan-1-one] registered a pEC50 of 7.7.

As for `CN(CC(=O)N1CCC(F)CC1)c1nc(-c2cc(OCCO)ccn2)nc2c1CCC2` [Compound 359, 1-(4-fluoropiperidin-1-yl)-2-({2-[4-(2-hydroxyethoxy)pyridin-2-yl]-5H,6H,7H-cyclopenta[d]pyrimidin-4-yl}(methyl)amino)ethan-1-one], the negative-log EC50 (pEC50) is on record as 7.5.

The compound `CCN(CC(=O)NC(C)(C)C)c1nc(-c2cc(OCCO)ccn2)nc2c1CCC2` [Compound 360, N-tert-butyl-2-[ethyl({2-[4-(2-hydroxyethoxy)pyridin-2-yl]-5H,6H,7H-cyclopenta[d]pyrimidin-4-yl})amino]acetamide] displayed a pEC50 of 7.8.

Consider `CN(CC(=O)NC(C)(C)C)c1nc(-c2cc(OCCO)ccn2)nc2c1C(C)(C)CC2` [Compound 361, N-tert-butyl-2-({2-[4-(2-hydroxyethoxy)pyridin-2-yl]-5,5-dimethyl-5H,6H,7H-cyclopenta[d]pyrimidin-4-yl}(methyl)amino)acetamide], for which the pEC50 came to 8.1.

In turn, `CN(CC(=O)N1CCCCC1)c1nc(-c2cc(OCCO)ccn2)nc2c1C(C)(C)CC2` [Compound 362, 2-({2-[4-(2-hydroxyethoxy)pyridin-2-yl]-5,5-dimethyl-5H,6H,7H-cyclopenta[d]pyrimidin-4-yl}(methyl)amino)-1-(piperidin-1-yl)ethan-1-one] came in with a negative logarithm of the EC50 (pEC50) of 8.

In turn, `COc1ccc(NC(=O)CN(C)c2nc(-c3cc(OCCO)ccn3)nc3c2C(C)(C)CC3)cn1` [Compound 363, 2-({2-[4-(2-hydroxyethoxy)pyridin-2-yl]-5,5-dimethyl-5H,6H,7H-cyclopenta[d]pyrimidin-4-yl}(methyl)amino)-N-(6-methoxypyridin-3-yl)acetamide] had a negative-log EC50 (pEC50) of 8.3.
